Assay results: ChEMBL document CHEMBL1949511, “Asymmetrical 2,6-bis(benzylidene)cyclohexanones: Synthesis, cytotoxic activity and QSAR study” (Eur J Med Chem, 2012)
Converted amounts (≈) assume the structure as drawn.

What follows are compounds tested on SK-N-MC (assay: Cytotoxicity against human SK-N-MC cells by MTT assay).
Type: functional, cell-based

Row | Compound | IC50 [µg/mL]
1 | O=C1/C(=C/c2ccc(Cl)cc2)CCC/C1=C\c1ccc([N+](=O)[O-])cc1 | 14 (≈ 39.7 µM)
2 | COc1cc(/C=C2\CCC/C(=C\c3ccc([N+](=O)[O-])cc3)C2=O)ccc1O | 48 (≈ 131 µM)
3 | COc1cccc(/C=C2\CCC/C(=C\c3ccccc3[N+](=O)[O-])C2=O)c1 | 4.49 (≈ 12.9 µM)
4 | COc1cc(/C=C2\CCC/C(=C\c3ccccc3[N+](=O)[O-])C2=O)cc(Br)c1OC | 6.24 (≈ 13.6 µM)
5 | CCCOc1c(Br)cc(/C=C2\CCC/C(=C\c3ccccc3[N+](=O)[O-])C2=O)cc1OC | 3.5 (≈ 7.2 µM)
6 | COc1cccc(/C=C2\CCC/C(=C\c3cccc([N+](=O)[O-])c3)C2=O)c1 | 4.94 (≈ 14.1 µM)
7 | COc1cccc(/C=C2\CCC/C(=C\c3cccc([N+](=O)[O-])c3)C2=O)c1OC | 10.1 (≈ 26.6 µM)
8 | COc1cc(/C=C2\CCC/C(=C\c3cccc([N+](=O)[O-])c3)C2=O)cc(Br)c1OC | 16.7 (≈ 36.4 µM)
9 | CCOc1c(Br)cc(/C=C2\CCC/C(=C\c3cccc([N+](=O)[O-])c3)C2=O)cc1OC | 10.8 (≈ 22.8 µM)
10 | CCCOc1c(Br)cc(/C=C2\CCC/C(=C\c3cccc([N+](=O)[O-])c3)C2=O)cc1OC | 1.51 (≈ 3.1 µM)
11 | CCCCOc1c(Br)cc(/C=C2\CCC/C(=C\c3cccc([N+](=O)[O-])c3)C2=O)cc1OC | 25.3 (≈ 50.7 µM)
12 | O=C1/C(=C/c2ccc([N+](=O)[O-])cc2)CCC/C1=C\c1cccc([N+](=O)[O-])c1 | 17.9 (≈ 49.1 µM)
13 | O=C1/C(=C/c2cccc(Cl)c2)CCC/C1=C\c1cccc([N+](=O)[O-])c1 | 4.15 (≈ 11.7 µM)
14 | COc1cccc(/C=C2\CCC/C(=C\c3ccc([N+](=O)[O-])cc3)C2=O)c1 | 11.5 (≈ 33 µM)
15 | COc1cccc(/C=C2\CCC/C(=C\c3ccc([N+](=O)[O-])cc3)C2=O)c1OC | 22.1 (≈ 58.4 µM)
16 | COc1cc(/C=C2\CCC/C(=C\c3ccc([N+](=O)[O-])cc3)C2=O)cc(Br)c1O | 16.8 (≈ 37.8 µM)
17 | COc1cc(/C=C2\CCC/C(=C\c3ccc([N+](=O)[O-])cc3)C2=O)cc(Br)c1OC | 9.86 (≈ 21.5 µM)
18 | CCOc1c(Br)cc(/C=C2\CCC/C(=C\c3ccc([N+](=O)[O-])cc3)C2=O)cc1OC | 3.91 (≈ 8.28 µM)
19 | CCCOc1c(Br)cc(/C=C2\CCC/C(=C\c3ccc([N+](=O)[O-])cc3)C2=O)cc1OC | 23.3 (≈ 47.8 µM)
20 | CCCCOc1c(Br)cc(/C=C2\CCC/C(=C\c3ccc([N+](=O)[O-])cc3)C2=O)cc1OC | 41.3 (≈ 82.6 µM)
21 | COc1ccc(/C=C2\CCC/C(=C\c3cccc([N+](=O)[O-])c3)C2=O)cc1 | 10.4 (≈ 29.7 µM)
22 | COc1ccc(/C=C2\CCC/C(=C\c3ccccc3[N+](=O)[O-])C2=O)cc1 | 75 (≈ 215 µM)
23 | COc1cc([C@@H]2c3cc4c(cc3[C@@H](O[C@@H]3O[C@@H]5CO[C@@H](C)O[C@H]5[C@H](O)[C@H]3O)[C@H]3COC(=O)[C@H]23)OCO4)cc(OC)c1O [ETOPOSIDE] | 14 (≈ 23.9 µM)

Each compound was assayed on MCF7 (assay: Ratio of etoposide IC50 to compound IC50 for human MCF7 cells by MTT assay).
Type: functional

Row | Compound | Ratio IC50
24 | CCCOc1c(Br)cc(/C=C2\CCC/C(=C\c3cccc([N+](=O)[O-])c3)C2=O)cc1OC | 7

The compounds below were run on MDA-MB-231 (assay: Cytotoxicity against human MDA-MB-231 cells by MTT assay).
Type: functional, cell-based

Row | Compound | IC50 [µg/mL]
25 | O=C1/C(=C/c2ccc(Cl)cc2)CCC/C1=C\c1ccc([N+](=O)[O-])cc1 | 12.4 (≈ 35.1 µM)
26 | COc1cc(/C=C2\CCC/C(=C\c3ccc([N+](=O)[O-])cc3)C2=O)ccc1O | 13.1 (≈ 35.8 µM)
27 | COc1cccc(/C=C2\CCC/C(=C\c3ccccc3[N+](=O)[O-])C2=O)c1 | 14.3 (≈ 41 µM)
28 | COc1cc(/C=C2\CCC/C(=C\c3ccccc3[N+](=O)[O-])C2=O)cc(Br)c1OC | 8.99 (≈ 19.6 µM)
29 | CCCOc1c(Br)cc(/C=C2\CCC/C(=C\c3ccccc3[N+](=O)[O-])C2=O)cc1OC | 1.99 (≈ 4.09 µM)
30 | COc1cccc(/C=C2\CCC/C(=C\c3cccc([N+](=O)[O-])c3)C2=O)c1 | 13.2 (≈ 37.7 µM)
31 | COc1cccc(/C=C2\CCC/C(=C\c3cccc([N+](=O)[O-])c3)C2=O)c1OC | 5.59 (≈ 14.7 µM)
32 | COc1cc(/C=C2\CCC/C(=C\c3cccc([N+](=O)[O-])c3)C2=O)cc(Br)c1OC | 13.9 (≈ 30.4 µM)
33 | CCOc1c(Br)cc(/C=C2\CCC/C(=C\c3cccc([N+](=O)[O-])c3)C2=O)cc1OC | 19.3 (≈ 40.9 µM)
34 | CCCOc1c(Br)cc(/C=C2\CCC/C(=C\c3cccc([N+](=O)[O-])c3)C2=O)cc1OC | 2.99 (≈ 6.15 µM)
35 | CCCCOc1c(Br)cc(/C=C2\CCC/C(=C\c3cccc([N+](=O)[O-])c3)C2=O)cc1OC | 5.53 (≈ 11.1 µM)
36 | O=C1/C(=C/c2ccc([N+](=O)[O-])cc2)CCC/C1=C\c1cccc([N+](=O)[O-])c1 | 8.85 (≈ 24.3 µM)
37 | O=C1/C(=C/c2cccc(Cl)c2)CCC/C1=C\c1cccc([N+](=O)[O-])c1 | 5.01 (≈ 14.2 µM)
38 | COc1cccc(/C=C2\CCC/C(=C\c3ccc([N+](=O)[O-])cc3)C2=O)c1 | 51.4 (≈ 147 µM)
39 | COc1cccc(/C=C2\CCC/C(=C\c3ccc([N+](=O)[O-])cc3)C2=O)c1OC | 6.73 (≈ 17.7 µM)
40 | COc1cc(/C=C2\CCC/C(=C\c3ccc([N+](=O)[O-])cc3)C2=O)cc(Br)c1O | > 100
41 | COc1cc(/C=C2\CCC/C(=C\c3ccc([N+](=O)[O-])cc3)C2=O)cc(Br)c1OC | 8.71 (≈ 19 µM)
42 | CCOc1c(Br)cc(/C=C2\CCC/C(=C\c3ccc([N+](=O)[O-])cc3)C2=O)cc1OC | 34.7 (≈ 73.5 µM)
43 | CCCOc1c(Br)cc(/C=C2\CCC/C(=C\c3ccc([N+](=O)[O-])cc3)C2=O)cc1OC | 4.01 (≈ 8.24 µM)
44 | CCCCOc1c(Br)cc(/C=C2\CCC/C(=C\c3ccc([N+](=O)[O-])cc3)C2=O)cc1OC | 8.38 (≈ 16.7 µM)
45 | COc1ccc(/C=C2\CCC/C(=C\c3cccc([N+](=O)[O-])c3)C2=O)cc1 | 44.7 (≈ 128 µM)
46 | COc1ccc(/C=C2\CCC/C(=C\c3ccccc3[N+](=O)[O-])C2=O)cc1 | 45 (≈ 129 µM)
47 | COc1cc([C@@H]2c3cc4c(cc3[C@@H](O[C@@H]3O[C@@H]5CO[C@@H](C)O[C@H]5[C@H](O)[C@H]3O)[C@H]3COC(=O)[C@H]23)OCO4)cc(OC)c1O [ETOPOSIDE] | 20.5 (≈ 34.9 µM)

What follows are compounds tested on MDA-MB-231 (assay: Ratio of etoposide IC50 to compound IC50 for human MDA-MB-231 cells by MTT assay).
Type: functional

Row | Compound | Ratio IC50
48 | CCCOc1c(Br)cc(/C=C2\CCC/C(=C\c3ccccc3[N+](=O)[O-])C2=O)cc1OC | 10
49 | CCCOc1c(Br)cc(/C=C2\CCC/C(=C\c3cccc([N+](=O)[O-])c3)C2=O)cc1OC | 7

The compounds below were run on MCF7 (assay: Cytotoxicity against human MCF7 cells by MTT assay).
Type: functional, cell-based

Row | Compound | IC50 [µg/mL]
50 | O=C1/C(=C/c2ccc(Cl)cc2)CCC/C1=C\c1ccc([N+](=O)[O-])cc1 | 1.02 (≈ 2.88 µM)
51 | COc1cc(/C=C2\CCC/C(=C\c3ccc([N+](=O)[O-])cc3)C2=O)ccc1O | 7.05 (≈ 19.3 µM)
52 | COc1cccc(/C=C2\CCC/C(=C\c3ccccc3[N+](=O)[O-])C2=O)c1 | 5.62 (≈ 16.1 µM)
53 | COc1cc(/C=C2\CCC/C(=C\c3ccccc3[N+](=O)[O-])C2=O)cc(Br)c1OC | 3.35 (≈ 7.31 µM)
54 | CCCOc1c(Br)cc(/C=C2\CCC/C(=C\c3ccccc3[N+](=O)[O-])C2=O)cc1OC | 4.14 (≈ 8.51 µM)
55 | COc1cccc(/C=C2\CCC/C(=C\c3cccc([N+](=O)[O-])c3)C2=O)c1 | 4.17 (≈ 11.9 µM)
56 | COc1cccc(/C=C2\CCC/C(=C\c3cccc([N+](=O)[O-])c3)C2=O)c1OC | 5.14 (≈ 13.5 µM)
57 | COc1cc(/C=C2\CCC/C(=C\c3cccc([N+](=O)[O-])c3)C2=O)cc(Br)c1OC | 4.72 (≈ 10.3 µM)
58 | CCOc1c(Br)cc(/C=C2\CCC/C(=C\c3cccc([N+](=O)[O-])c3)C2=O)cc1OC | 24.9 (≈ 52.7 µM)
59 | CCCOc1c(Br)cc(/C=C2\CCC/C(=C\c3cccc([N+](=O)[O-])c3)C2=O)cc1OC | 0.85 (≈ 1.75 µM)
60 | CCCCOc1c(Br)cc(/C=C2\CCC/C(=C\c3cccc([N+](=O)[O-])c3)C2=O)cc1OC | 5.97 (≈ 11.9 µM)
61 | O=C1/C(=C/c2ccc([N+](=O)[O-])cc2)CCC/C1=C\c1cccc([N+](=O)[O-])c1 | 8.4 (≈ 23.1 µM)
62 | O=C1/C(=C/c2cccc(Cl)c2)CCC/C1=C\c1cccc([N+](=O)[O-])c1 | 5.15 (≈ 14.6 µM)
63 | COc1cccc(/C=C2\CCC/C(=C\c3ccc([N+](=O)[O-])cc3)C2=O)c1 | 5.82 (≈ 16.7 µM)
64 | COc1cccc(/C=C2\CCC/C(=C\c3ccc([N+](=O)[O-])cc3)C2=O)c1OC | 13.3 (≈ 35.1 µM)
65 | COc1cc(/C=C2\CCC/C(=C\c3ccc([N+](=O)[O-])cc3)C2=O)cc(Br)c1O | 4.93 (≈ 11.1 µM)
66 | COc1cc(/C=C2\CCC/C(=C\c3ccc([N+](=O)[O-])cc3)C2=O)cc(Br)c1OC | 11 (≈ 24.1 µM)
67 | CCOc1c(Br)cc(/C=C2\CCC/C(=C\c3ccc([N+](=O)[O-])cc3)C2=O)cc1OC | 3.08 (≈ 6.52 µM)
68 | CCCOc1c(Br)cc(/C=C2\CCC/C(=C\c3ccc([N+](=O)[O-])cc3)C2=O)cc1OC | 7.98 (≈ 16.4 µM)
69 | CCCCOc1c(Br)cc(/C=C2\CCC/C(=C\c3ccc([N+](=O)[O-])cc3)C2=O)cc1OC | 27 (≈ 54 µM)
70 | COc1ccc(/C=C2\CCC/C(=C\c3cccc([N+](=O)[O-])c3)C2=O)cc1 | 5.71 (≈ 16.3 µM)
71 | COc1ccc(/C=C2\CCC/C(=C\c3ccccc3[N+](=O)[O-])C2=O)cc1 | 11.2 (≈ 32.1 µM)
72 | COc1cc([C@@H]2c3cc4c(cc3[C@@H](O[C@@H]3O[C@@H]5CO[C@@H](C)O[C@H]5[C@H](O)[C@H]3O)[C@H]3COC(=O)[C@H]23)OCO4)cc(OC)c1O [ETOPOSIDE] | 18.4 (≈ 31.3 µM)

The compounds below were run on SK-N-MC (assay: Ratio of etoposide IC50 to compound IC50 for human SK-N-MC cells by MTT assay).
Type: functional

Row | Compound | Ratio IC50
73 | CCCOc1c(Br)cc(/C=C2\CCC/C(=C\c3cccc([N+](=O)[O-])c3)C2=O)cc1OC | 7
